Some results are limits rather than exact numbers.
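Note: spheroids exposed to agents for 7 days.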

One assay deals with CN0375-F725-PDC KRAS spheroid viability. Briefly: Anticancer human tumor CN0375-F725-PDC patient-derived colon carcinoma cell line growth inhibition [KRAS2]. Conditions: compound 0.0316 µM; stronger effect = lower value; spheroids with HUVEC and MSC. Summed up:
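KRAS-mutant tumor cells were grown as spheroids with HUVEC endothelial cells and human MSCs as stroma. Targeted agents were tested alone and with KRAS pathway inhibitors. Doses started at or near clinical Cmax, or 10 microM, descending half-log.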
On to `C=CC(=O)N1CCN(c2nc(OCC3CCCN3C)nc3c2CCN(c2cccc4cccc(C)c24)C3)CC1CC#N` (stereo unspecified), for which the viability, T/C (in general, the ratio of treated to control) was 100% [middle of 17 runs].

Staying with this assay, now noted: compound 0.1 µM; stronger effect = lower value; spheroids with HUVEC and MSC.
On to `C=CC(=O)N1CCN(c2nc(OCC3CCCN3C)nc3c2CCN(c2cccc4cccc(C)c24)C3)CC1CC#N` (stereo unspecified), for which the viability, T/C is 100% [middle of 17 runs].

Still in this assay, the particulars now being: compound 0.316 µM; stronger effect = lower value; spheroids with HUVEC and MSC.
With `C=CC(=O)N1CCN(c2nc(OCC3CCCN3C)nc3c2CCN(c2cccc4cccc(C)c24)C3)CC1CC#N` (stereo unspecified), the viability, T/C is 98.1% [middle of 17 runs].

Staying with this assay, now noted: compound 1 µM; stronger effect = lower value; spheroids with HUVEC and MSC.
Regarding `C=CC(=O)N1CCN(c2nc(OCC3CCCN3C)nc3c2CCN(c2cccc4cccc(C)c24)C3)CC1CC#N` (stereo unspecified), the viability, T/C is 92.7% [middle of 17 runs].

Still in this assay, the particulars now being: compound alone; run of 08/26/2021; spheroids with HUVEC and MSC.
For `C=CC(=O)N1CCN(c2nc(OCC3CCCN3C)nc3c2CCN(c2cccc4cccc(C)c24)C3)CC1CC#N` (stereo unspecified), the IC50 (usually the concentration that gives 50% inhibition) is 1.82 µM [middle of 5 runs].

Still in this assay, the particulars now being: compound alone; run of 09/02/2021; spheroids with HUVEC and MSC.
Consider `C=CC(=O)N1CCN(c2nc(OCC3CCCN3C)nc3c2CCN(c2cccc4cccc(C)c24)C3)CC1CC#N` (stereo unspecified), for which the concentration for half-maximal inhibition (IC50) was 2.09 µM [middle of 5 runs].

The same assay, now with this note: curve of first compound; second compound 0.1 µM; spheroids with HUVEC and MSC.
Turning to `COc1cc(Nc2ncc3c(n2)-c2ccc(Cl)cc2C(c2c(F)cccc2OC)=NC3)ccc1C(=O)O` + COc1cc2nc(C)nc(NC(C)c3cc(N)cc(C(F)(F)F)c3)c2cc1OC1CCOC1, the IC50 is > 10 µM.

Consider `CC1OCC2(CCN(c3cnc(Sc4ccnc(N)c4Cl)c(N)n3)CC2)C1N` (stereo unspecified) + COc1cc2nc(C)nc(NC(C)c3cc(N)cc(C(F)(F)F)c3)c2cc1OC1CCOC1, for which the IC50 was > 10 µM.

Consider `CC(C)NCC(C(=O)N1CCN(c2ncnc3c2C(C)CC3O)CC1)c1ccc(Cl)cc1` (stereo unspecified) + CC1OCC2(CCN(c3cnc(Sc4ccnc(N)c4Cl)c(N)n3)CC2)C1N, for which the IC50 is > 10 µM.

As to `COc1cc2nccc(Oc3ccc(NC(=O)C4(C(=O)Nc5ccc(F)cc5)CC4)cc3)c2cc1OC` + C=CC(=O)N1CCN(c2nc(=O)n(-c3c(C)ccnc3C(C)C)c3nc(-c4c(O)cccc4F)c(F)cc23)C(C)C1, the IC50 was > 10 µM.

The same assay, now with this note: curve of first compound; second compound 0.316 µM; spheroids with HUVEC and MSC.
Consider `COc1cc(Nc2ncc3c(n2)-c2ccc(Cl)cc2C(c2c(F)cccc2OC)=NC3)ccc1C(=O)O` + COc1cc2nc(C)nc(NC(C)c3cc(N)cc(C(F)(F)F)c3)c2cc1OC1CCOC1, for which the IC50 is > 10 µM.

For the compound `CC1OCC2(CCN(c3cnc(Sc4ccnc(N)c4Cl)c(N)n3)CC2)C1N` (stereo unspecified) + COc1cc2nc(C)nc(NC(C)c3cc(N)cc(C(F)(F)F)c3)c2cc1OC1CCOC1, the IC50 is > 10 µM.

With `CC(C)NCC(C(=O)N1CCN(c2ncnc3c2C(C)CC3O)CC1)c1ccc(Cl)cc1` (stereo unspecified) + CC1OCC2(CCN(c3cnc(Sc4ccnc(N)c4Cl)c(N)n3)CC2)C1N, the IC50 was > 10 µM.

As to `COc1cc2nccc(Oc3ccc(NC(=O)C4(C(=O)Nc5ccc(F)cc5)CC4)cc3)c2cc1OC` + C=CC(=O)N1CCN(c2nc(=O)n(-c3c(C)ccnc3C(C)C)c3nc(-c4c(O)cccc4F)c(F)cc23)C(C)C1, the concentration for half-maximal inhibition (IC50) is > 10 µM.

The assay is the same for the next values; noted with them: curve of first compound; second compound 1 µM; spheroids with HUVEC and MSC.
For the compound `COc1cc(Nc2ncc3c(n2)-c2ccc(Cl)cc2C(c2c(F)cccc2OC)=NC3)ccc1C(=O)O` + COc1cc2nc(C)nc(NC(C)c3cc(N)cc(C(F)(F)F)c3)c2cc1OC1CCOC1, the IC50 is > 10 µM.

For `CC1OCC2(CCN(c3cnc(Sc4ccnc(N)c4Cl)c(N)n3)CC2)C1N` (stereo unspecified) + COc1cc2nc(C)nc(NC(C)c3cc(N)cc(C(F)(F)F)c3)c2cc1OC1CCOC1, the half-maximal inhibitory concentration (IC50) is > 10 µM.

For `CC(C)NCC(C(=O)N1CCN(c2ncnc3c2C(C)CC3O)CC1)c1ccc(Cl)cc1` (stereo unspecified) + CC1OCC2(CCN(c3cnc(Sc4ccnc(N)c4Cl)c(N)n3)CC2)C1N, the 50% inhibitory concentration (IC50) is > 10 µM.

As for `COc1cc2nccc(Oc3ccc(NC(=O)C4(C(=O)Nc5ccc(F)cc5)CC4)cc3)c2cc1OC` + C=CC(=O)N1CCN(c2nc(=O)n(-c3c(C)ccnc3C(C)C)c3nc(-c4c(O)cccc4F)c(F)cc23)C(C)C1, the IC50 is > 10 µM.

The assay is the same for the next values; noted with them: curve of first compound; second compound 3.16 µM; spheroids with HUVEC and MSC.
Consider `COc1cc(Nc2ncc3c(n2)-c2ccc(Cl)cc2C(c2c(F)cccc2OC)=NC3)ccc1C(=O)O` + COc1cc2nc(C)nc(NC(C)c3cc(N)cc(C(F)(F)F)c3)c2cc1OC1CCOC1, for which the IC50 is > 10 µM.

Regarding `CC1OCC2(CCN(c3cnc(Sc4ccnc(N)c4Cl)c(N)n3)CC2)C1N` (stereo unspecified) + COc1cc2nc(C)nc(NC(C)c3cc(N)cc(C(F)(F)F)c3)c2cc1OC1CCOC1, the IC50 was 4.64 µM.

As to `CC(C)NCC(C(=O)N1CCN(c2ncnc3c2C(C)CC3O)CC1)c1ccc(Cl)cc1` (stereo unspecified) + CC1OCC2(CCN(c3cnc(Sc4ccnc(N)c4Cl)c(N)n3)CC2)C1N, the IC50 is > 10 µM.

Take `COc1cc2nccc(Oc3ccc(NC(=O)C4(C(=O)Nc5ccc(F)cc5)CC4)cc3)c2cc1OC` + C=CC(=O)N1CCN(c2nc(=O)n(-c3c(C)ccnc3C(C)C)c3nc(-c4c(O)cccc4F)c(F)cc23)C(C)C1: the IC50 is > 10 µM.

Still in this assay, the particulars now being: curve of first compound; second compound 10 µM; spheroids with HUVEC and MSC.
As for `COc1cc(Nc2ncc3c(n2)-c2ccc(Cl)cc2C(c2c(F)cccc2OC)=NC3)ccc1C(=O)O` + COc1cc2nc(C)nc(NC(C)c3cc(N)cc(C(F)(F)F)c3)c2cc1OC1CCOC1, the IC50 is < 0.0316 µM.

Regarding `CC1OCC2(CCN(c3cnc(Sc4ccnc(N)c4Cl)c(N)n3)CC2)C1N` (stereo unspecified) + COc1cc2nc(C)nc(NC(C)c3cc(N)cc(C(F)(F)F)c3)c2cc1OC1CCOC1, the IC50 was < 0.0316 µM.

For `CC(C)NCC(C(=O)N1CCN(c2ncnc3c2C(C)CC3O)CC1)c1ccc(Cl)cc1` (stereo unspecified) + CC1OCC2(CCN(c3cnc(Sc4ccnc(N)c4Cl)c(N)n3)CC2)C1N, the IC50 is 5.95 µM.

For `COc1cc2nccc(Oc3ccc(NC(=O)C4(C(=O)Nc5ccc(F)cc5)CC4)cc3)c2cc1OC` + C=CC(=O)N1CCN(c2nc(=O)n(-c3c(C)ccnc3C(C)C)c3nc(-c4c(O)cccc4F)c(F)cc23)C(C)C1, the IC50 was determined as 1.97 µM.

The assay is the same for the next values; noted with them: second compound 0.1 µM; first compound 0.0316 µM; stronger effect = lower value; spheroids with HUVEC and MSC.
As to `COc1cc(Nc2ncc3c(n2)-c2ccc(Cl)cc2C(c2c(F)cccc2OC)=NC3)ccc1C(=O)O` + COc1cc2nc(C)nc(NC(C)c3cc(N)cc(C(F)(F)F)c3)c2cc1OC1CCOC1, the viability, T/C was 95.9%.

`CC1OCC2(CCN(c3cnc(Sc4ccnc(N)c4Cl)c(N)n3)CC2)C1N` (stereo unspecified) + COc1cc2nc(C)nc(NC(C)c3cc(N)cc(C(F)(F)F)c3)c2cc1OC1CCOC1: the viability, T/C is 95.5%.

Consider `CC(C)NCC(C(=O)N1CCN(c2ncnc3c2C(C)CC3O)CC1)c1ccc(Cl)cc1` (stereo unspecified) + CC1OCC2(CCN(c3cnc(Sc4ccnc(N)c4Cl)c(N)n3)CC2)C1N, for which the viability, T/C was 100%.

For `COc1cc2nccc(Oc3ccc(NC(=O)C4(C(=O)Nc5ccc(F)cc5)CC4)cc3)c2cc1OC` + C=CC(=O)N1CCN(c2nc(=O)n(-c3c(C)ccnc3C(C)C)c3nc(-c4c(O)cccc4F)c(F)cc23)C(C)C1, the viability, T/C was 109%.

Still in this assay, the particulars now being: second compound 0.1 µM; first compound 0.1 µM; stronger effect = lower value; spheroids with HUVEC and MSC.
With `COc1cc(Nc2ncc3c(n2)-c2ccc(Cl)cc2C(c2c(F)cccc2OC)=NC3)ccc1C(=O)O` + COc1cc2nc(C)nc(NC(C)c3cc(N)cc(C(F)(F)F)c3)c2cc1OC1CCOC1, the viability, T/C is 93.2%.

`CC1OCC2(CCN(c3cnc(Sc4ccnc(N)c4Cl)c(N)n3)CC2)C1N` (stereo unspecified) + COc1cc2nc(C)nc(NC(C)c3cc(N)cc(C(F)(F)F)c3)c2cc1OC1CCOC1: the viability, T/C is 83.2%.

As to `CC(C)NCC(C(=O)N1CCN(c2ncnc3c2C(C)CC3O)CC1)c1ccc(Cl)cc1` (stereo unspecified) + CC1OCC2(CCN(c3cnc(Sc4ccnc(N)c4Cl)c(N)n3)CC2)C1N, the viability, T/C was 95.9%.

Take `COc1cc2nccc(Oc3ccc(NC(=O)C4(C(=O)Nc5ccc(F)cc5)CC4)cc3)c2cc1OC` + C=CC(=O)N1CCN(c2nc(=O)n(-c3c(C)ccnc3C(C)C)c3nc(-c4c(O)cccc4F)c(F)cc23)C(C)C1: the viability, T/C was 106%.

The assay is the same for the next values; noted with them: second compound 0.1 µM; first compound 0.316 µM; stronger effect = lower value; spheroids with HUVEC and MSC.
With `COc1cc(Nc2ncc3c(n2)-c2ccc(Cl)cc2C(c2c(F)cccc2OC)=NC3)ccc1C(=O)O` + COc1cc2nc(C)nc(NC(C)c3cc(N)cc(C(F)(F)F)c3)c2cc1OC1CCOC1, the viability, T/C is 88.8%.

In the case of `CC1OCC2(CCN(c3cnc(Sc4ccnc(N)c4Cl)c(N)n3)CC2)C1N` (stereo unspecified) + COc1cc2nc(C)nc(NC(C)c3cc(N)cc(C(F)(F)F)c3)c2cc1OC1CCOC1, the viability, T/C was 80.6%.

Values taken from PubChem BioAssay AID1963860 (Molecular Pharmacology Branch, DTP, NCI, 2024).
